Experimental data published in patent US9632092B2, “Reagent for diagnosing tumor, pharmaceutical composition, and screening method” (Tokyo Metropolitan Institute of Medical Science, priority 2012, dated 2017).
Where no end group is shown, it is not given here. [ ]: non-standard residue; d: D form. pS = N[C@@H](COP(=O)(O)O)C(=O)O

Experiments:
[1] = tested on: Huh-1_p62^−/− cells; assay: subdermal transplantation of Huh-1_p62−/− cells with introduced p62 mutants into nude mice; format: in vivo; settings: 50 days after transplantation, introduced into Huh-1_p62−/−
Procedure: First, p62 cDNAs which encode S349E (SEQ ID No. 8) (pseudo-phosphorylated p62) with the substitution of glutamic acid for serine 349 of human p62 (SEQ ID No. 7), S349A (SEQ ID No. 9) (non-phosphorylated p62) with the substitution of alanine for serine 349 of human p62, or T350A (SEQ ID No. 10) (p62 mutant defective in interacting with Keap1) with the substitution of alanine for threonine 350 of human p62 was prepared.
Next, a [Huh-1_p62^−/−] cell line was generated by knocking out the p62 gene in Huh-1 cells, using Zinc Finger Nuclease system (Sigma-Aldrich, CompoZr (registered trademark) Zinc Finger Nuclease). Then, adenoviruses having p62 w.t. or p62 mutant were produced, using Adenovirus expression kit (Takara Bio). The [Huh-1_p62^−/−] cells were cultured in 2 ml of a growth medium (Williams E medium containing 10% fetal bovine serum, 5 U/ml penicillin, and 50 μg/ml streptomycin) for 24 hours. The medium was replaced with a fresh medium containing adenovirus at MOI of 50 and the cells were continuously cultured. Wild-type human p62 (SEQ ID No. 7), S349E (SEQ ID No. 8), S349A (SEQ ID No. 9), and T350A (SEQ ID No. 10) were introduced into the [Huh-1_p62^−/−] cell line and thus a [Huh-1_p62^−/−_p62 w.t.] cell line with p62 w.t., a [Huh-1_p62^−/−_p62S349E] cell line with p62S349E, a [Huh-1_p62^−/−_p62S349A] cell line with p62S349A, and a [Huh-1_p62^−/−_p62T350A] cell line with p62T350A, respectively, in [Huh-1_p62^−/−] cell line was obtained.
Each of the cells was transplanted subdermally into […] nude mice. […] Each cell line was transplanted into five mice and the volume (left) and the weight (right) of the tumors were measured 50 days after the transplantation. Mean±standard error for each cell line was calculated and shown in the graphs in FIG. 7(b).

[2] = tested on: Nrf2; assay: immunoblotting of nuclear and whole cell extracts of hepatocytes expressing p62 mutants; format: cell-based, mouse; settings: normal hepatocytes
Procedure: Adenoviruses capable of expressing FLAG-tagged p62 w.t. […] Next, normal hepatocytes were cultured in 2 ml of growth medium (Williams E medium containing 10% fetal bovine serum, 5 U/mL penicillin, and 50 μg/mL streptomycin) for 24 hours. The medium was replaced with fresh medium containing the adenovirus at MOI of 50 and the culture was continued. Twenty-four hours after the replacement of the medium, whole cell extract (Total) and nuclear extract (Nucleus) were prepared. Next, immunoprecipitates were prepared from the whole cell extract with anti-FLAG antibody (Sigma Chemical). Then, the samples were separated by NuPAGE electrophoresis system (Invitrogen) on 12% bis-tris gel and MOPS-SDS buffer, and transferred to PVDF membranes. The signals were detected using anti-p62 antibody (GP62C: Progen Biotechnik), anti-Keap1 antibody (Proteintech Group), anti-phosphorylated p62 antibody, anti-Nqo1 antibody (Abcam), anti-Actin antibody (MAB1501R: Millipore), anti-Nrf2 antibody (H-300: Santa Cruz Biotechnology), and anti-LaminB antibody (M-20: Santa Cruz Biotechnology).

[3] = target: mouse Keap1-DC (aa321-609, SEQ ID No. 24) (Mus musculus, UniProt Q9Z2X8); assay: isothermal titration calorimetry, binding to Keap1-DC; settings: for Binding constant (Ka) to Keap1-DC: isothermal titration calorimetry, 25° C.; for binding affinity for Keap1-DC relative to KIR of the non-phosphorylated p62: fold higher binding constant
mouse Keap1-DC (aa321-609, SEQ ID No. 24), sequence (Q9Z2X8 321-609): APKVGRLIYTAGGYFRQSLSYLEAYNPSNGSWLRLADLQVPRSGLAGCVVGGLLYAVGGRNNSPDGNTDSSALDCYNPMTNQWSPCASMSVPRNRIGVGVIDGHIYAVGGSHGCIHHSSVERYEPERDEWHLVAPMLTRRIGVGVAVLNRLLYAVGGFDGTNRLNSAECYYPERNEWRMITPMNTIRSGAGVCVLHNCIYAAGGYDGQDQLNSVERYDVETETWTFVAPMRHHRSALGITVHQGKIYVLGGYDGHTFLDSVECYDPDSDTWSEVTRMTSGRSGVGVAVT
Procedure: Binding isotherms were obtained using isothermal titration calorimetry, for the interaction of mouse Keap1-DC (aa321-609, SEQ ID No. 24) with KIR in mouse non-phosphorylated p62 (SEQ ID No. 21), KIR in mouse phosphorylated p62 (SEQ ID No. 21), or an ETGE motif of mouse Nrf2 (SEQ ID No. 26) (FIG. 2).
First, isothermal titration calorimetry was performed using MicroCal iTC200 System (GE Healthcare) at 25° C. 2.5 μl of 0.1 mM solution of non-phosphorylated KIR (^348[sequence]^356, SEQ ID No. 21) was injected from a rotating syringe (1000 rpm) into 200 μl of 0.1 mM solution of Keap1-DC sixteen times at an interval of 3 minutes. 1.3 μl of 0.6 mM phosphorylated KIR (^348VDP(pS)TGELQ^356) solution was injected from a rotating syringe (1000 rpm) into 200 μl of 0.06 mM Keap1-DC solution thirty times at an interval of 2 minutes. […] The binding data were analyzed using Origin 7 software (GE healthcare).

| Binding constant (Ka) to Keap1-DC [3] | Substance | in vivo proliferation of the tumor cells (tumor volume and weight) [1] | also measured |
| --- | --- | --- | --- |
| – | S349A: non-phosphorylated human p62 mutant, alanine for serine 349, SEQ ID No. 9 | not recovered | – |
| – | S351E: pseudo-phosphorylated mouse p62 mutant, glutamic acid for serine 351, SEQ ID No. 2 | – | Nrf2 accumulation in nuclei ([2]; nuclear extract): significantly accumulated; expression of Nqo1 (Nrf2 target) ([2]; whole cell extract): induced |
| – | T350A: human p62 mutant defective in interacting with Keap1, alanine for threonine 350, SEQ ID No. 10 [reference compound] | not recovered | – |
| (5.67±1.19)×10^4 M^−1 | non-phosphorylated p62-KIR: non-phosphorylated Keap1-interacting region peptide of mouse p62, 348VDPSTGELQ356, SEQ ID No. 21 (listed as Mus musculus) [reference compound] | – | – |
| – | p62 (S349E): pseudo-phosphorylated human p62 mutant, glutamic acid for serine 349, SEQ ID No. 8 | significantly enhanced | – |
| (5.12±1.80)×10^6 M^−1 | phosphorylated p62-KIR: Keap1-interacting region peptide of mouse p62 phosphorylated at serine 351, 348VDP(pS)TGELQ356 (VDP[pS]TGELQ; listed as Mus musculus) | – | binding affinity for Keap1-DC relative to KIR of the non-phosphorylated p62 [3]: about 100 times; binding affinity for Keap1-DC relative to KIR of the non-phosphorylated p62 ([3]; listed as KIR in the phosphorylated p62): approximately 100 times |
